Measured values published in patent publication US11142526B2, “Spirocycle compounds and methods of making and using same” (H. Lundbeck A/S, priority 2017, dated 2021).
pIC50: −log10 of the molar value.

What was measured:
MAGL [1] = molecular target: T1, MAGL (Mus musculus (Mouse), UniProt O35678); experiment: In vitro competitive activity-based protein profiling, mouse brain proteome; format: biochemical; details: for inhibition at 1 µM: mouse; for pIC50: mouse brain
MAGL [2] = molecular target: T1, MAGL; experiment: Mouse brain proteomes from inhibitor treated mice (oral gavage, brain MAGL activity 4 h after administration); format: in vivo; details: 5 mg/kg oral gavage
Method: Preparation of Mouse Brain Proteomes from Inhibitor Treated Mice.
Inhibitors were administered to wild-type C57B1/6J by oral gavage in a vehicle of polyethylene glycol.

T1 sequence (O35678 whole entry): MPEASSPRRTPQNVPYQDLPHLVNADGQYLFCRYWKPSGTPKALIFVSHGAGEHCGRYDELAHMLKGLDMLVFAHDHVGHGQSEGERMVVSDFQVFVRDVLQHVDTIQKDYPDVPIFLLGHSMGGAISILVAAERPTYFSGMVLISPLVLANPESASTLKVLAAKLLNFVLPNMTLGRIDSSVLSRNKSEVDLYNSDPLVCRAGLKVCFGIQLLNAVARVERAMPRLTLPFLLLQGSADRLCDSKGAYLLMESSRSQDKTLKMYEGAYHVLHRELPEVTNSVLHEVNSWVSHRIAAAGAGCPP

SMILES	inhibition at 1 µM (MAGL [1])	pIC50 (MAGL [1])	MAGL % Inhibition at 5 mg/kg (Mouse) (MAGL [2])
O=C(OC(C(F)(F)F)C(F)(F)F)N1CCC2(CCCN2Cc2cc3ccccc3s2)CC1 [Example 223, 1,1,1,3,3,3-Hexafluoropropan-2-yl 1-(benzo[b]thiophen-2-ylmethyl)-1,8-diazaspiro[4.5] decane-8-carboxylate]	> 75%	> 7.00	### (% inhibition is greater than or equal to 75%)
O=C(OC(C(F)(F)F)C(F)(F)F)N1CCC2(CCN(Cc3cc4cc(Cl)ccc4s3)C2)CC1 [Example 51, 1,1,1,3,3,3-Hexafluoropropan-2-yl 2-((5-chlorobenzo[b]thiophen-2-yl)methyl)-2,8-diazaspiro[4.5] decane-8-carboxylate]	> 75%	> 7.00	### (% inhibition is greater than or equal to 75%)
O=C(OC(C(F)(F)F)C(F)(F)F)N1CCC2(CCCN2C(=O)c2cc3cccc(Cl)c3s2)CC1 [Example 105, 1,1,1,3,3,3-Hexafluoropropan-2-yl 1-(7-chlorobenzo[b]thiophene-2-carbonyl)-1,8-diazaspiro[4.5] decane-8-carboxylate]	> 75%	> 7.00	### (% inhibition is greater than or equal to 75%)
CC(C)(C)c1cc(CN2CCC3(CCN(C(=O)OC(C(F)(F)F)C(F)(F)F)CC3)C2)n(C2CCOCC2)n1 [Example 213, 1,1,1,3,3,3-Hexafluoropropan-2-yl 2-((3-(t-butyl)-1-(tetrahydro-2H-pyran-4-yl)-1H-pyrazol-5-yl)methyl)-2,8-diazaspiro[4.5]decane-8-carboxylate]	> 75%	> 7.00	### (% inhibition is greater than or equal to 75%)
O=C(OC(C(F)(F)F)C(F)(F)F)N1CCC2(CCCN2Cc2cc3cc(F)ccc3[nH]2)CC1 [Example 52, 1,1,1,3,3,3-Hexafluoropropan-2-yl 1-((5-fluoro-1H-indol-2-yl)methyl)-1,8-diazaspiro[4.5] decane-8-carboxylate]	> 75%	> 7.00	### (% inhibition is greater than or equal to 75%)
CCc1cc(CN2CCC3(CCN(C(=O)OC(C(F)(F)F)C(F)(F)F)CC3)C2)n(C2CCOCC2)n1 [Example 7, 1,1,1,3,3,3-Hexafluoropropan-2-yl 2-((3-ethyl-1-(tetrahydro-2H-pyran-4-yl)-1H-pyrazol-5-yl)methyl)-2,8-diazaspiro[4.5]decane-8-carboxylate]	> 75%	> 7.00	### (% inhibition is greater than or equal to 75%)
Cc1c(C(=O)N2CCCC23CCN(C(=O)OC(C(F)(F)F)C(F)(F)F)CC3)[nH]c2ccc(Cl)cc12 [Example 109, 1,1,1,3,3,3-Hexafluoropropan-2-yl 1-(5-chloro-3-methyl-1H-indole-2-carbonyl)-1,8-diazaspiro[4.5] decane-8-carboxylate]	> 75%	> 7.00	### (% inhibition is greater than or equal to 75%)
Cc1ccc2sc(CN3CCCC34CCN(C(=O)OC(C(F)(F)F)C(F)(F)F)CC4)cc2c1 [Example 61, 1,1,1,3,3.3-Hexafluoropropan-2-yl 1-((5-methylbenzo[b]thiophen-2-yl)methyl)-1,8-diazaspiro[4.5] decane-8-carboxylate]	> 75%	> 7.00	### (% inhibition is greater than or equal to 75%)
O=C(OC(C(F)(F)F)C(F)(F)F)N1CCC2(CCCN2C(=O)c2ccc3occc3c2)CC1 [Example 77, 1,1,1,3,3,3-Hexafluoropropan-2-yl 1-(benzofuran-5-carbonyl)-1,8-diazaspiro[4.5] decane-8-carboxylate]	> 75%	> 7.00	### (% inhibition is greater than or equal to 75%)
COc1ccc(-c2cc(CN3CCCC34CCN(C(=O)OC(C(F)(F)F)C(F)(F)F)CC4)no2)cc1 [Example 46, 1,1,1,3,3,3-Hexafluoropropan-2-yl 1-((5-(4-methoxyphenyl)isoxazol-3-yl)methyl)-1,8-diazaspiro[4.5] decane-8-carboxylate]	–	> 7.00	## (% inhibition is less than 75% and greater than 25%)
CC(C)n1cc(CN2CCCC23CCN(C(=O)OC(C(F)(F)F)C(F)(F)F)CC3)c(-c2ccccc2Cl)n1 [Example 222, 1,1,1,3,3,3-Hexafluoropropan-2-yl 1-((3-(2-chlorophenyl)-1-isopropyl-1H-pyrazol-4-yl)methyl)-1,8-diazaspiro[4.5]decane-8-carboxylate]	> 75%	> 7.00	### (% inhibition is greater than or equal to 75%)
CC(C)c1cc(CN2CCC3(CCN(C(=O)OC(C(F)(F)F)C(F)(F)F)CC3)C2)n(-c2ccccc2Cl)n1 [Example 216, 1,1,1,3,3,3-Hexafluoropropan-2-yl 2-((1-(2-chlorophenyl)-3-isopropyl-1H-pyrazol-5-yl)methyl)-2,8-diazaspiro[4.5]decane-8-carboxylate]	> 75%	> 7.00	### (% inhibition is greater than or equal to 75%)
O=C(OC(C(F)(F)F)C(F)(F)F)N1CCC2(CCCN2Cc2csc(-c3ccccc3)n2)CC1 [Example 227, 1,1,1,3,3,3-Hexafluoropropan-2-yl 1-((2-phenylthiazol-4-yl)methyl)-1,8-diazaspiro[4.5]decane-8-carboxylate]	> 75%	> 7.00	### (% inhibition is greater than or equal to 75%)

Further lines, with some results ahead:

inhibition at 1 µM (MAGL [1])	pIC50 (MAGL [1])	SMILES	MAGL % Inhibition at 5 mg/kg (Mouse) (MAGL [2])
> 75%	> 7.00	O=C(OC(C(F)(F)F)C(F)(F)F)N1CCC2(CCCN2C(=O)c2cc3cc(C(F)(F)F)ccc3s2)CC1 [Example 102, 1,1,1,3,3,3-Hexafluoropropan-2-yl 1-(5-(trifluoromethyl)benzo[b]thiophene-2-carbonyl)-1,8-diazaspiro[4.5] decane-8-carboxylate]	### (% inhibition is greater than or equal to 75%)
> 75%	> 7.00	CC(C)n1cc(CN2CCCC23CCN(C(=O)OC(C(F)(F)F)C(F)(F)F)CC3)c(-c2cccc(Cl)c2)n1 [Example 219, 1,1,1,3,3,3-Hexafluoropropan-2-yl 1-((3-(3-chlorophenyl)-1-isopropyl-1H-pyrazol-4-yl)methyl)-1,8-diazaspiro[4.5]decane-8-carboxylate]	### (% inhibition is greater than or equal to 75%)
> 75%	> 7.00	O=C(OC(C(F)(F)F)C(F)(F)F)N1CCC2(CCCN2Cc2cc3c(Cl)cc(Cl)cc3[nH]2)CC1 [Example 11, 1,1,1,3,3,3-Hexafluoropropan-2-yl 1-((4,6-dichloro-1H-indol-2-yl)methyl)-1,8-diazaspiro[4.5]decane-8-carboxylate]	### (% inhibition is greater than or equal to 75%)
> 75%	> 7.00	O=C(OC(C(F)(F)F)C(F)(F)F)N1CCC2(CCCN2C(=O)c2cc3ccc(C(F)(F)F)cc3s2)CC1 [Example 101, 1,1,1,3,3,3-Hexafluoropropan-2-yl 1-(6-(trifluoromethyl)benzo[b]thiophene-2-carbonyl)-1,8-diazaspiro[4.5] decane-8-carboxylate]	### (% inhibition is greater than or equal to 75%)
> 75%	> 7.00	CC(C)n1cc(CN2CCC3(CCN(C(=O)OC(C(F)(F)F)C(F)(F)F)CC3)C2)c(-c2ccccc2)n1 [Example 6, 1,1,1,3,3,3-Hexafluoropropan-2-yl 2-((1-isopropyl-3-phenyl-1H-pyrazol-4-yl)methyl)-2,8-diazaspiro[4.5]decane-8-carboxylate]	## (% inhibition is less than 75% and greater than 25%)
> 75%	> 7.00	O=C(OC(C(F)(F)F)C(F)(F)F)N1CCC2(CCCN2Cc2sc3ccccc3c2Cl)CC1 [Example 42, 1,1,1,3,3,3-Hexafluoropropan-2-yl 1-((3-chlorobenzo[b]thiophen-2-yl)methyl)-1,8-diazaspiro[4.5] decane-8-carboxylate]	### (% inhibition is greater than or equal to 75%)
> 75%	> 7.00	O=C(OC(C(F)(F)F)C(F)(F)F)N1CCC2(CCCN2Cc2cc3cc(C(F)(F)F)ccc3s2)CC1 [Example 41, 1,1,1,3,3,3-Hexafluoropropan-2-yl 1-((5-(trifluoromethyl)benzo[b]thiophen-2-yl)methyl)-1,8-diazaspiro[4.5] decane-8-carboxylate]	### (% inhibition is greater than or equal to 75%)
> 75%	> 7.00	O=C(OC(C(F)(F)F)C(F)(F)F)N1CCC2(CCCN2C(=O)c2cc3cc(Cl)cc(Cl)c3[nH]2)CC1 [Example 16, 1,1,1,3,3,3-Hexafluoropropan-2-yl 1-(5,7-dichloro-1H-indole-2-carbonyl)-1,8-diazaspiro[4.5]decane-8-carboxylate]	### (% inhibition is greater than or equal to 75%)
> 75%	> 7.00	CCc1cc(CN2CCC3(CCN(C(=O)OC(C(F)(F)F)C(F)(F)F)CC3)C2)n(-c2ccccc2Cl)n1 [Example 215, 1,1,1,3,3,3-Hexafluoropropan-2-yl 2-((1-(2-chlorophenyl)-3-ethyl-1H-pyrazol-5-yl)methyl)-2,8-diazaspiro[4.5]decane-8-carboxylate]	### (% inhibition is greater than or equal to 75%)
